In patent US11078228B2, “Ectonucleotidase inhibitors and methods of use thereof” (Calithera Biosciences, Inc., priority 2018, dated 2021) one finds IC50 data, which are given here for 10 compounds.

Sequence of recombinant CD73 (P21589 27-547): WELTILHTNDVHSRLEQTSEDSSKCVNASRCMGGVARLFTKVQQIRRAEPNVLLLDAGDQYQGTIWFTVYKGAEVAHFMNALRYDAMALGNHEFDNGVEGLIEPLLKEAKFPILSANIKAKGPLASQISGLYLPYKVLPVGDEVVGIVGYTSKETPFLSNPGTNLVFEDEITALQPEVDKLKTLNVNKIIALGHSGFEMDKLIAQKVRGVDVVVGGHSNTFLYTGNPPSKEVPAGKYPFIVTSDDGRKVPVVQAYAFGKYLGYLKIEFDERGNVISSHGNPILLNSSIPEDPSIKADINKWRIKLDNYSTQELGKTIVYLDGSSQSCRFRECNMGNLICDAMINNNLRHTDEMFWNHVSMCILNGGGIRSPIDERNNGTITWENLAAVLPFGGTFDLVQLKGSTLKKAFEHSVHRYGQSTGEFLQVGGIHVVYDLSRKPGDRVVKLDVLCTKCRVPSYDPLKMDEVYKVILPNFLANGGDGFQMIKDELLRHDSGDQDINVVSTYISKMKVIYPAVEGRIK

The target of the test is recombinant CD73 (Homo sapiens (Human), UniProt P21589). Description: Assay 2: Inhibition of the CD73 enzyme in vitro (0.05 nM CD73, 1 hour 37° C., Malachite Green). The test is classed as biochemical. The conditions noted are these: 0.05 nM CD73, 50 μM AMP, 1 hour at 37° C. Here is the method:
For measurements of soluble CD73 enzyme activity, recombinant CD73 was obtained from R&D Systems, Cat. No. 5795-EN-010. […] Reactions were allowed to proceed for 1 hour at 37° C. before the addition of 100 μL Malachite Green (Cell Signaling Technology, Cat. No. 12776). After 5 minutes at room temperature, absorbance at 630 nm was determined on a microplate spectrophotometer. The concentration of inorganic phosphate was determined using a phosphate standard curve.
On to `C#C[C@@]1(O)[C@@H](COC(Cc2ccc(N3CCN(C)CC3=O)cc2)(C(=O)O)C(=O)O)O[C@@H](n2cnc3c(N)nc(Cl)nc32)[C@@H]1O` [Example 154, 2-(((2R,3S,4R,5R)-5-(6-amino-2-chloro-9H-purin-9-yl)-3-ethynyl-3,4-dihydroxytetrahydrofuran-2-yl)methoxy)-2-(4-(4-methyl-2-oxopiperazin-1-yl)benzyl)malonic acid], for which the IC50 is 2 nM.

For the compound `C#C[C@@]1(O)[C@@H](COC(Cc2ccnc(Cl)c2)(C(=O)O)C(=O)O)O[C@@H](n2cnc3c(N)nc(Cl)nc32)[C@@H]1O` [Compound 5, 2-(((2R,3S,4R,5R)-5-(6-amino-2-chloro-9H-purin-9-yl)-3-ethynyl-3,4-dihydroxytetrahydrofuran-2-yl)methoxy)-2-((2-chloropyridin-4-yl)methyl)malonic acid], the IC50 came to 4 nM.

With `C#C[C@@]1(O)[C@@H](CO[C@](Cc2ccccc2)(C(=O)O)c2cscn2)O[C@@H](n2cnc3c(NC(C)C)nc(Cl)nc32)[C@@H]1O` (single isomer, unassigned) [Example 170], the IC50 turned out to be 8 nM. With `C#C[C@@]1(O)[C@@H](COC(Cc2ccc(-c3ccccc3C(=O)O)cc2)(C(=O)O)C(=O)O)O[C@@H](n2cnc3c(N)nc(Cl)nc32)[C@@H]1O` [Example 54, 2-(((2R,3S,4R,5R)-5-(6-amino-2-chloro-9H-purin-9-yl)-3-ethynyl-3,4-dihydroxytetrahydrofuran-2-yl)methoxy)-2-((2′-carboxy-[1,1′-biphenyl]-4-yl)methyl)malonic acid] the figure was 0.2 nM; with `C#C[C@@]1(O)[C@@H](COC(Cc2ccccc2)(C(=O)O)C(=O)O)O[C@@H](n2cnc3c(N4CC(CO)C4)nc(Cl)nc32)[C@@H]1O` [Example 46, 2-benzyl-2-(((2R,3S,4R,5R)-5-(2-chloro-6-(3-(hydroxymethyl)azetidin-1-yl)-9H-purin-9-yl)-3-ethynyl-3,4-dihydroxytetrahydrofuran-2-yl)methoxy)malonic acid], 1 nM; with `C#C[C@@]1(O)[C@@H](COC(Cc2ccc(-c3cccn(CCC)c3=O)cc2)(C(=O)O)C(=O)O)O[C@@H](n2cnc3c(N)nc(Cl)nc32)[C@@H]1O` [Example 19, 2-(((2R,3S,4R,5R)-5-(6-amino-2-chloro-9H-purin-9-yl)-3-ethynyl-3,4-dihydroxytetrahydrofuran-2-yl)methoxy)-2-(4-(2-oxo-1-propy-1,2-dihydropyridin-3-yl)benzyl)malonic acid], 0.2 nM. As to `C#C[C@@]1(O)[C@@H](COC(Cc2ccccc2)(C(=O)O)C(=O)O)O[C@@H](n2cnc3c(-c4ccccc4)nc(Cl)nc32)[C@@H]1O` [Example 14, 2-benzyl-2-(((2R,3S,4R,5R)-5-(2-chloro-6-phenyl-9H-purin-9-yl)-3-ethynyl-3,4-dihydroxytetrahydrofuran-2-yl)methoxy)malonic acid], the IC50 stood at 0.6 nM.

Regarding `C#C[C@@]1(O)[C@@H](COC(Cc2ccccc2)(C(=O)O)C(=O)O)O[C@@H](n2cnc3c(N(C)C4CC4)nc(Cl)nc32)[C@@H]1O` [Example 105, 2-benzyl-2-(((2R,3S,4R,5R)-5-(2-chloro-6-(cyclopropyl(methyl)amino)-9H-purin-9-yl)-3-ethynyl-3,4-dihydroxytetrahydrofuran-2-yl)methoxy)malonic acid], the IC50 is 2 nM. For `C#C[C@@]1(O)[C@@H](CO[C@](Cc2ccc(N3CCCNC3=O)cc2)(C(=O)O)C(=O)OCC)O[C@@H](n2cnc3c(N)nc(Cl)nc32)[C@@H]1O` (single isomer, unassigned) [Example 164], the half-inhibitory concentration (IC50) amounted to 261 nM.

`C#C[C@@]1(O)[C@@H](COC(Cc2ccccc2)(C(=O)O)C(=O)O)O[C@@H](n2cnc3c(N[C@@H]4CCc5ccccc54)nc(Cl)nc32)[C@@H]1O` [Example 69, 2-benzyl-2-(((2R,3S,4R,5R)-5-(2-chloro-6-(((R)-2,3-dihydro-1H-inden-1-yl)amino)-9H-purin-9-yl)-3-ethynyl-3,4-dihydroxytetrahydrofuran-2-yl)methoxy)-malonic acid]: the IC50 was 3 nM.
